Reference: patent US11779600B2, “Methods of treating or preventing alzheimer's disease and associated conditions” (CEDARS-SINAI MEDICAL CENTER, priority 2016, dated 2023)

Tested on: infiltrating OPN+CD45high cells
Test: OPN+CD45high infiltrating cell count in ADtg mouse brain
Assay type: in vivo
Conditions: cell count per section, vs PBS controls (FIG. 13F)
Protocol: ADtg mice (10 months old) received subcutaneous injections of GA [also known as Cop-1 and Copaxone®; 100 μg in phosphate-buffered saline (PBS)] or PBS alone (control group) twice a week for 1 week and then once a week for 8 weeks. For evaluation of innate immune infiltration to the brain by flow cytometry, 10-month-old ADtg mice received subcutaneous injections of GA (100 mg in PBS) or PBS alone twice a week for 1 week and then once a week for 3 weeks. At the end of the study, all mice were anaesthetized and then perfused with ice-cold PBS with 0.5 mM EDTA, after which their organs were collected and analyzed or fixed in 2.5% paraformaldehyde (Sigma-Aldrich), and cryoprotected with 30% sucrose for further histological analysis.
CD115^+ monocytes from mice donors were isolated as previously reported (Koronyo et al., Brain: a journal of neurology 2015,138:2399-2422). In brief, bone marrow cells were harvested from the femora, tibiae, and humeri and enriched for mononuclear cells on a Ficoll-Paque® PLUS (17-1440-03, GE Healthcare) density gradient. […]
The number and area (μm^2) of OPN+ cells, Iba1^+CD45^hi cells, GFAP^+ cells, Thio-S^+ amyloid-βplaques and 4G8^+ amyloid-βplaques were determined by examining four to six coronal sections per mouse at 150-μm intervals over an area covering both the hippocampal and cortical (including entorhinal and cingulate cortex) regions. […]

glatiramer acetate [GA]
increase in number of infiltrating OPN+CD45high cells: 1.5 fold
